Reference: PMC11662004 (Communications Chemistry, 2024)
Where “and” joins values, the source holds several entries; their conditions need not be identical. Equal values may be shown once. Read-outs that look alike come from different tables or passages of the source.

Columns and labels:
[1] = biological target: T1, NgTet1 (Naegleria gruberi, UniProt D2W6T1); experiment: biochemical; conditions: for normalised activity, %: AlphaScreen
T1 construct: His6-tagged full-length Naegleria gruberi NgTet1 (321 a. a.) protein with a thrombin cleavage site; made in house; host or cells: E. coli BL21(DE3)
T1 sequence (D2W6T1 1-321): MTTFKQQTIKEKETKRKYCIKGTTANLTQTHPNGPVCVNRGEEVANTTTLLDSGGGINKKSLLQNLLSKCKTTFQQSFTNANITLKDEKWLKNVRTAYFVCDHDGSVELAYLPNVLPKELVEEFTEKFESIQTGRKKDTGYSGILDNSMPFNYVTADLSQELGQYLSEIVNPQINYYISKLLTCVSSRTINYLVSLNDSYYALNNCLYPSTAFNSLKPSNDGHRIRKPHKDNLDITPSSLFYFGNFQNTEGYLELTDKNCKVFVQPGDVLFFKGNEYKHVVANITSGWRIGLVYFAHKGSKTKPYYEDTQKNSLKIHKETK
Experimental: (Fig. 5a), were screened for inhibitory activity against NgTet1.
(§1) Activity was normalised against reactions containing vehicle (DMSO). […] AS data shown as the mean of three experimental replicates (n = 3; mean ± SD); ^1H NMR data plotted from two independent replicates (n = 2); tabulated data reported as the mean of two and three independent replicates for ^1H NMR and AS, respectively (n = 2–3, SD reported for n = 3). N. d.: not determined; AS: AlphaScreen.
Compounds in DMSO (100 nL) were pre-dispensed in a logarithmically linear concentration gradient onto 384-well ProxiPlates using an Echo® 550 acoustic liquid handler (Labcyte). NgTet1 was pre-incubated with the inhibitor dilution series in DMSO at room temperature for 10 min. Reactions were initiated by the addition of appropriate cofactors and DNA. […] The reactions were quenched by the addition of 30 mM EDTA (pH 4.2), 358 mM NaCl (5 μL) within the enzyme linear activity window (determined in Fig. S10). Concurrently, a mixture containing the anti-^5hmC antibody (1:2000 dilution) and AlphaScreen beads (1:62.5 dilution) in assay buffer was prepared and incubated at room temperature for 30 min. The AlphaScreen bead/antibody mixture was added to the quenched NgTet1 reactions (5 μL), and the complete mixture was incubated at room temperature for 1 h. Chemiluminescence was measured on a PHERAstar FS/FSX (BMG Labtech) equipped with an AlphaScreen 680 570 module. All AlphaScreen bead manipulations were performed under subdued lighting. Inhibition data was normalised to reactions containing vehicle only (1% v/v DMSO) and fitted using “log(inhibitor) vs. response—Variable slope (four parameters)” non-linear regression model on GraphPad Prism 5.

[2] = biological target: T1, NgTet1; experiment: biochemical; conditions: for potency change in the presence of non-substrate 5HC DNA: uncoupled 2OG turnover; for IC50: 5 μM NgTet1, 50 μM 2OG
Experimental: as §1
(§2) All ^1H NMR spectra were recorded at 25 °C using D2O as a reference for internal deuterium lock on a Bruker Avance III 700 MHz equipped with an inverse TCI cryoprobe in 3 or 5 mm diameter tubes with a total sample volume of 160 or 565 μL, respectively. The water signal was reduced using Perfect Echo excitation sculpting suppression. Chemical shifts are reported in ppm relative to D2O (δH = 4.70 ppm).
NgTet1 was pre-incubated with inhibitor dilution series in DMSO-d6 at room temperature for 10 min (50 mM Tris-d11 [pH 7.5], 2% v/v DMSO-d6). Reactions were initiated by the addition of appropriate cofactors and DNA. […] The reactions were quenched by the addition of 9 mM NOG and 9 mM ZnCl2 in 90 mM Tris-d11 [pH 7.5] (20 μL) within the enzyme linear activity window (determined in Figure. S10). Samples were transferred to NMR tubes and subjected to ^1H NMR analysis. Data were processed as described above. Inhibition data was normalised to reactions containing vehicle only (1% v/v DMSO-d6) and fitted using “log(inhibitor) vs. response - Variable slope (four parameters)” non-linear regression model on GraphPad Prism 5.
Activity was normalised against reactions containing vehicle only (100% activity). Data is shown as the mean of 2 independent replicates (n = 2; […]
Fig. S10 Determination of linear NgTet1 enzymatic activity windows for inhibitor characterisation. a 1H NMR succinate detection time courses with no DNA, 5HC DNA (double- […]
complementary 5'-ACC AC5mC GGT GGT-3'). b AlphaScreen 5hmC detection time course using […]
courses shown. 1H NMR reaction conditions: 5 μM NgTet1, 2 mM sodium L-ascorbate, 100 μM […]
v/v D2O. DNA was added to a final concentration of 20 μM of double-stranded DNA. […]

[3] = biological target: T1, NgTet1; assay type: biochemical; conditions: for Km: read-out: KM^app (2OG)
Experimental: Double-stranded 12 bp DNA oligomers were added at a final concentration of 20 µM. […]
Double-stranded DNA oligomers were added at a final concentration of 20 µM. […]
as §2
Spectrometer settings were determined using a control sample containing all reaction components excluding enzyme. TET enzyme was added to an identical sample, and the resulting assay mixture was transferred to an NMR tube before deposition into the instrument. […] Spectrum recordings were carried out consecutively without delay. Data were processed using automated routines on MestReNova v14.2.0; signals of interest were integrated with absolute intensity scaling. ^1H NMR time courses reported in figures are representative results from two or three independent replicates.

[4] = 5HC DNA, NMR, -Log[inhibitor] (M) 3
[5] = 5HC DNA, NMR, -Log[inhibitor] (M) 4
[6] = 5HC DNA, NMR, -Log[inhibitor] (M) 4.5
[7] = 5HC DNA, NMR, -Log[inhibitor] (M) 5
[8] = 5HC DNA, NMR, -Log[inhibitor] (M) 5.5
[9] = 5HC DNA, NMR, -Log[inhibitor] (M) 6
[10] = 5HC DNA, NMR, -Log[inhibitor] (M) 6.5
[11] = 5HC DNA, NMR, -Log[inhibitor] (M) 7
[12] = 5HC DNA, NMR, -Log[inhibitor] (M) 7.5
[13] = IC50, 5mC DNA, NMR, 2OG decarboxylation with 20 µM 5mC DNA
[14] = IC50, No DNA, NMR, uncoupled 2OG decarboxylation, no DNA

O=C(O)c1ccnc(C(=O)O)c1 [2,4-PDCA, 2,4-pyridinedicarboxylic acid]
normalised activity, % ([1]; -Log[inhibitor] (M) 8.03235): 118.908% and 105.933% and 106.512% and 100% and 103.458% and 100.779% and 97.3678%
IC50 ([1]; read-out: IC50, 5mC ssDNA, AS): 3.24 µM
potency change in the presence of non-substrate 5HC DNA ([2]; 1H NMR): < 2 fold
IC50 ([2]; 2OG decarboxylation with 20 µM 5HC DNA, read-out: IC50, 5HC DNA, NMR): 4.27 µM
normalised activity, % [2, 4]: -0.17% and 2.97%
normalised activity, % ([2]; 5HC DNA, NMR, -Log[inhibitor] (M) 3.5): 6.05%
normalised activity, % [2, 5]: 6.05% and 7.57%
normalised activity, % [2, 6]: 13.51%
normalised activity, % [2, 7]: 30.08%
normalised activity, % [2, 8]: 63.79% and 61.71%
normalised activity, % [2, 9]: 84.73% and 86.47%
normalised activity, % [2, 10]: 94.82% and 93.19%
normalised activity, % [2, 11]: 100.33%
normalised activity, % [2, 12]: 99.56% and 98%
normalised activity, % ([2]; 5mC DNA, NMR, 2,4-PDCA series -Log[inhibitor] (M) 3): 1.811% and 1.747%
normalised activity, % ([2]; 5mC DNA, NMR, -Log[inhibitor] (M) 3.47712): 1.338% and 1.107%
normalised activity, % ([2]; 5mC DNA, NMR, -Log[inhibitor] (M) 3.95424): 2.094% and 0.5576%
normalised activity, % ([2]; 5mC DNA, NMR, -Log[inhibitor] (M) 4.43136): 2.845% and 5.31%
normalised activity, % ([2]; 5mC DNA, NMR, -Log[inhibitor] (M) 4.90848): 7.1385% and 9.765%
normalised activity, % ([2]; 5mC DNA, NMR, -Log[inhibitor] (M) 5.38561): 30.9766% and 31.0028%
normalised activity, % ([2]; 5mC DNA, NMR, -Log[inhibitor] (M) 5.86273): 71.7609% and 72.2416%
normalised activity, % ([2]; 5mC DNA, NMR, -Log[inhibitor] (M) 6.33985): 92.2674% and 93.2727%
normalised activity, % ([2]; 5mC DNA, NMR, -Log[inhibitor] (M) 6.81697): 96.6317% and 94.5918%
normalised activity, % ([2]; 5mC DNA, NMR, -Log[inhibitor] (M) 7.29409): 100.253% and 99.2143%
IC50 [2, 13]: 2.45 µM
IC50 [2, 14]: 8.13 µM
normalised activity, % ([2]; No DNA, NMR, -Log[inhibitor] (M) 3): 1.858% and 5.513%
normalised activity, % ([2]; No DNA, NMR, -Log[inhibitor] (M) 3.47712): 5.794% and 4.915%
normalised activity, % ([2]; No DNA, NMR, -Log[inhibitor] (M) 3.95424): 6.819% and 9.688%
normalised activity, % ([2]; No DNA, NMR, -Log[inhibitor] (M) 4.43136): 23.271% and 23.2057%
normalised activity, % ([2]; No DNA, NMR, -Log[inhibitor] (M) 4.90848): 39.7721% and 42.1215%
normalised activity, % ([2]; No DNA, NMR, -Log[inhibitor] (M) 5.38561): 73.0359% and 62.1963%
normalised activity, % ([2]; No DNA, NMR, -Log[inhibitor] (M) 5.86273): 95.5986% and 84.3948%
normalised activity, % ([2]; No DNA, NMR, -Log[inhibitor] (M) 6.33985): 102.544% and 92.4597%
normalised activity, % ([2]; No DNA, NMR, -Log[inhibitor] (M) 6.81697): 101.45% and 102.432%
normalised activity, % ([2]; No DNA, NMR, -Log[inhibitor] (M) 7.29409): 100.407% and 97.5514%

O=C(O)c1ccc(O)c2ncccc12 [IOX1, 5-carboxy-8-hydroxyquinoline]
IC50 [1]: 26.3 µM
normalised activity, % ([1]; -Log[inhibitor] (M) 4.00432): -0.5677% and -0.5665% and -1.091%
normalised activity, % ([1]; -Log[inhibitor] (M) 4.5272): 43.4249% and 52.8284% and 51.0837%
normalised activity, % ([1]; -Log[inhibitor] (M) 5.00432): 78.4888% and 85.3739% and 75.186%
normalised activity, % ([1]; -Log[inhibitor] (M) 5.60638): 80.6565% and 92.476% and 89.0303%
normalised activity, % ([1]; -Log[inhibitor] (M) 6.0945): 91.4843% and 93.7065% and 96.6507%
normalised activity, % ([1]; -Log[inhibitor] (M) 6.61738): 100.743% and 110.536% and 100.94%
normalised activity, % ([1]; -Log[inhibitor] (M) 7.0945): 88.4496% and 111.251% and 97.2074%
normalised activity, % ([1]; -Log[inhibitor] (M) 7.69656): 87.9129% and 106.34% and 94.3692%
normalised activity, % ([1]; -Log[inhibitor] (M) 8.20844): 99.4426% and 116.115% and 101.926%
normalised activity, % ([1]; -Log[inhibitor] (M) 8.73132): 100% and 102.574%
potency change in the presence of non-substrate 5HC DNA ([2]; 1H NMR): < 2 fold
normalised activity, % [2, 4]: 3.36% and 6.05%
normalised activity, % [2, 5]: 65.88% and 69.85%
normalised activity, % [2, 6]: 102.42% and 107.78%
normalised activity, % [2, 7]: 115.52% and 112.71%
normalised activity, % [2, 8]: 111.12% and 108.5%
normalised activity, % [2, 9]: 104.59% and 105.6%
normalised activity, % [2, 10]: 111.93% and 98%
normalised activity, % [2, 11]: 104.59% and 103.37%
normalised activity, % [2, 12]: 102.45% and 101.86%
potency decreased relative to AS assay ([2]; 5mC DNA substrate-saturating conditions, 1H NMR): 5 fold
IC50 ([2]; IC50, 5HC DNA, NMR, 2OG decarboxylation with 20 µM 5HC DNA): 110 µM
IC50 [2, 13]: 123 µM
IC50 [2, 14]: 57.5 µM

O=C(O)CCC(=O)C(=O)O [2OG, 2-oxoglutarate]
decrease of 2OG KM^app on substrate saturation ([3]; 20 µM 5mC DNA vs no DNA): ~2 fold
Vmax^app ([3]; No DNA): 2.83 µM/min
kcat^app ([3]; No DNA): 0.0095 s⁻¹
Km ([3]; No DNA, 5 μM NgTet1): 284 µM
Km ([3]; with 20 µM 5mC DNA): 150 µM
Vmax^app ([3]; with 20 µM 5mC DNA): 8.31 µM/min
